Measured values as given in article PMC4904262 (ACS Medicinal Chemistry Letters, 2016).

Key:
EPHB1 = EPHB1 (Homo sapiens, UniProt P54762); details: 1 µM, ATP at Km
PIM-3 = PIM-3 (Homo sapiens, UniProt Q86V86); details: 1 µM, ATP at Km
NEK2 = NEK2 (Homo sapiens, UniProt P51955); details: 1 µM, ATP at Km
SIK = SIK (Homo sapiens, UniProt P57059); details: 1 µM, ATP at Km
PASK = PASK (Homo sapiens, UniProt Q96RG2); details: 1 µM, ATP at Km
ROCK-II = ROCK-II (Homo sapiens, UniProt O75116); details: 1 µM, ATP at Km
CK1DELTA = CK1DELTA (Homo sapiens, UniProt P48730); details: 1 µM, ATP at Km
HCK = HCK (Homo sapiens, UniProt P08631); details: HCK (first listing, page 8); 1 µM; ATP at Km
PDGFRBETA = PDGFRBETA (Homo sapiens, UniProt P09619); details: 1 µM, ATP at Km
PKCEPSILON = PKCEPSILON (Homo sapiens, UniProt Q02156); details: 1 µM, ATP at Km
LYN = LYN (Homo sapiens, UniProt P07948); details: 1 µM, ATP at Km
PI3 KINASE (P85A) = PI3 KINASE (P85A) (Homo sapiens, UniProt P42336); details: 1 µM, ATP at Km
TAO3 = TAO3 (Homo sapiens, UniProt Q9H2K8); details: 1 µM, ATP at Km
TAO1 = TAO1 (Homo sapiens, UniProt Q7L7X3); details: 1 µM, ATP at Km
MST2 = MST2 (Homo sapiens, UniProt Q13188); details: 1 µM, ATP at Km
ZAP-70 = ZAP-70 (Homo sapiens, UniProt P43403); details: 1 µM, ATP at Km
PRK2 = PRK2 (Homo sapiens, UniProt Q16513); details: 1 µM, ATP at Km
CDK5/P35 = CDK5/P35 (Homo sapiens, UniProt Q00535); details: 1 µM, ATP at Km
PKCIOTA = PKCIOTA (Homo sapiens, UniProt P41743); details: 1 µM, ATP at Km
DAPK1 = DAPK1 (Homo sapiens, UniProt P53355); details: 1 µM, ATP at Km
PKBALPHA = PKBALPHA (Homo sapiens, UniProt P31749); details: 1 µM, ATP at Km
ABL = ABL (Homo sapiens, UniProt P00519); details: 1 µM, ATP at Km
GRK5 = GRK5 (Homo sapiens, UniProt P34947); details: 1 µM, ATP at Km
ERBB4 = ERBB4 (Homo sapiens, UniProt Q15303); details: 1 µM, ATP at Km
PKCBETAI = PKCBETAI (Homo sapiens, UniProt P05771); details: 1 µM, ATP at Km
MAPK2 = MAPK2 (Homo sapiens, UniProt P28482); details: 1 µM, ATP at Km
TXK = TXK (Homo sapiens, UniProt P42681); details: 1 µM, ATP at Km
MTOR = MTOR (Homo sapiens, UniProt P42345); details: 1 µM, ATP at Km
SAPK2A = SAPK2A (Homo sapiens, UniProt Q16539); details: 1 µM, ATP at Km
CSK = CSK (Homo sapiens, UniProt P41240); details: 1 µM, ATP at Km
DCAMKL2 = DCAMKL2 (Homo sapiens, UniProt Q8N568); details: 1 µM, ATP at Km
TRKA = TRKA (Homo sapiens, UniProt P04629); details: 1 µM, ATP at Km
FYN = FYN (Homo sapiens, UniProt P06241); details: 1 µM, ATP at Km
EPHA4 = EPHA4 (Homo sapiens, UniProt P54764); details: 1 µM, ATP at Km
[…] [1] = molecular target: […] (Homo sapiens, UniProt Q13555); details: 1 µM, ATP at Km
EPHB2 = EPHB2 (Homo sapiens, UniProt P29323); details: 1 µM, ATP at Km
PTK5 = PTK5 (Homo sapiens, UniProt P42685); details: 1 µM, ATP at Km
LOK = LOK (Homo sapiens, UniProt O94804); details: 1 µM, ATP at Km
[…] [2] = molecular target: […] (Homo sapiens, UniProt Q13557); details: 1 µM, ATP at Km
FGR = FGR (Homo sapiens, UniProt P09769); details: 1 µM, ATP at Km
phospho-STAT1^SER727 = assay: cells; details: Homo sapiens, SW-620, read-out: pSTAT1^SER727 IC50 ± SD
MSK1 = MSK1 (Homo sapiens, UniProt O75582); details: 1 µM, ATP at Km
PI3K DELTA = PI3K DELTA (Homo sapiens, UniProt O00329); details: 1 µM, ATP at Km
GRK6 = GRK6 (Homo sapiens, UniProt P43250); details: 1 µM, ATP at Km

CDK5/P35, sequence (Q00535 whole entry): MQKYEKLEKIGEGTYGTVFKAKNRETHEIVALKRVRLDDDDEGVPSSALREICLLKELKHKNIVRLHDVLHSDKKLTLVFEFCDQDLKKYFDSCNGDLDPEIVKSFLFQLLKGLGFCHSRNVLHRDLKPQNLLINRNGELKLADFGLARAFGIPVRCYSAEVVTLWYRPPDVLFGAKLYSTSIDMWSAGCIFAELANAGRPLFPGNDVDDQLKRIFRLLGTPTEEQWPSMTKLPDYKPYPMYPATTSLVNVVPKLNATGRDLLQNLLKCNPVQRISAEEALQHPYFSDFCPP
CDK5/P35, sequence (Q15078 whole entry partner): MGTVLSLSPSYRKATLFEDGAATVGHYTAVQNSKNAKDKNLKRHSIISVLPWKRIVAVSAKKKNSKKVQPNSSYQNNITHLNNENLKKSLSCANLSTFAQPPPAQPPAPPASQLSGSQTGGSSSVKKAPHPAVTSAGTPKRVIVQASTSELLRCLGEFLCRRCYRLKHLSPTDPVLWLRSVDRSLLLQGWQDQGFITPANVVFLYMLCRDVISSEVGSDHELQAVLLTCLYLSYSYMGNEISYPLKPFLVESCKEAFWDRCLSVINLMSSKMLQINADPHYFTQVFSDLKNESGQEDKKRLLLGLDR
TAO3, sequence (Q9H2K8 whole entry): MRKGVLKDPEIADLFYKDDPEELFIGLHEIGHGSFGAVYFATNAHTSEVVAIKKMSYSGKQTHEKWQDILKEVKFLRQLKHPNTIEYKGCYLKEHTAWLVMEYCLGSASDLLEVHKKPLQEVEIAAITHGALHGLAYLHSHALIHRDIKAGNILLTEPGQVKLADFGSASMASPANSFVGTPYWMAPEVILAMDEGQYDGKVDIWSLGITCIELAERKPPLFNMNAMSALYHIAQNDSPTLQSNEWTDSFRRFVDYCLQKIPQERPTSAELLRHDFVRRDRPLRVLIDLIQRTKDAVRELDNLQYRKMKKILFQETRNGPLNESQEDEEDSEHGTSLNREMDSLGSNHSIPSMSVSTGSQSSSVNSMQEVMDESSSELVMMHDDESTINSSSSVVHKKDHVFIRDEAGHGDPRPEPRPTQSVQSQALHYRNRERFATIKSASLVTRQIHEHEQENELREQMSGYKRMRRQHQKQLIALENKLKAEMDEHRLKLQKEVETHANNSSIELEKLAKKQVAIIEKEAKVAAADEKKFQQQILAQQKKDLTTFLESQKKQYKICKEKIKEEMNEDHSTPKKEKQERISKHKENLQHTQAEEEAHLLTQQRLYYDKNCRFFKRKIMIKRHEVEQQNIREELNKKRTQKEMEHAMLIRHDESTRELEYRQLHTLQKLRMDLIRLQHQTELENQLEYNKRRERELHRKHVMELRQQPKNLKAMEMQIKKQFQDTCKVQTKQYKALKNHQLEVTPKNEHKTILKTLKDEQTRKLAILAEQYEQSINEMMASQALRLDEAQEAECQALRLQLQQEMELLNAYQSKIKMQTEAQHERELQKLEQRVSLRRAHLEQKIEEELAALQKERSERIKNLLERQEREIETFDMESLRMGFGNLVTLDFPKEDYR
PKCEPSILON, sequence (Q02156 whole entry): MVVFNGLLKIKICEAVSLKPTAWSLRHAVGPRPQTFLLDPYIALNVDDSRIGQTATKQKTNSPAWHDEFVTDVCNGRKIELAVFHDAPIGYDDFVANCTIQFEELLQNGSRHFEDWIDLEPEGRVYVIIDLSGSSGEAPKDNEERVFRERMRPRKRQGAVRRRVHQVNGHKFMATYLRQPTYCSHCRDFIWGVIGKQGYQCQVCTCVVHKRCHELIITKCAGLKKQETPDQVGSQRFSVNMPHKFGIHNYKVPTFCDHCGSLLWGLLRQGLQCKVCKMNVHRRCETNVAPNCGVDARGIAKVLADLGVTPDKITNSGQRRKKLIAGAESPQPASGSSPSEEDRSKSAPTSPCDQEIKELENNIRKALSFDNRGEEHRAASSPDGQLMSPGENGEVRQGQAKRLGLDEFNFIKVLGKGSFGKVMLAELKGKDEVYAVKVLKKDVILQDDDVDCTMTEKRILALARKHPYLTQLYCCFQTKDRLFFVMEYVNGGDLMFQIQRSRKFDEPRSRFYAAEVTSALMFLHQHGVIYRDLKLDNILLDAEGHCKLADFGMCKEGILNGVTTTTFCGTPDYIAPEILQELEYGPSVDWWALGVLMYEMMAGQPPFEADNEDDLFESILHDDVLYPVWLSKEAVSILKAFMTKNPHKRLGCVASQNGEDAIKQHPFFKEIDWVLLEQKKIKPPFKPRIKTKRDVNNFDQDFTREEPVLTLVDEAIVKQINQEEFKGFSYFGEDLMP
EPHB2, sequence (P29323 19-1055): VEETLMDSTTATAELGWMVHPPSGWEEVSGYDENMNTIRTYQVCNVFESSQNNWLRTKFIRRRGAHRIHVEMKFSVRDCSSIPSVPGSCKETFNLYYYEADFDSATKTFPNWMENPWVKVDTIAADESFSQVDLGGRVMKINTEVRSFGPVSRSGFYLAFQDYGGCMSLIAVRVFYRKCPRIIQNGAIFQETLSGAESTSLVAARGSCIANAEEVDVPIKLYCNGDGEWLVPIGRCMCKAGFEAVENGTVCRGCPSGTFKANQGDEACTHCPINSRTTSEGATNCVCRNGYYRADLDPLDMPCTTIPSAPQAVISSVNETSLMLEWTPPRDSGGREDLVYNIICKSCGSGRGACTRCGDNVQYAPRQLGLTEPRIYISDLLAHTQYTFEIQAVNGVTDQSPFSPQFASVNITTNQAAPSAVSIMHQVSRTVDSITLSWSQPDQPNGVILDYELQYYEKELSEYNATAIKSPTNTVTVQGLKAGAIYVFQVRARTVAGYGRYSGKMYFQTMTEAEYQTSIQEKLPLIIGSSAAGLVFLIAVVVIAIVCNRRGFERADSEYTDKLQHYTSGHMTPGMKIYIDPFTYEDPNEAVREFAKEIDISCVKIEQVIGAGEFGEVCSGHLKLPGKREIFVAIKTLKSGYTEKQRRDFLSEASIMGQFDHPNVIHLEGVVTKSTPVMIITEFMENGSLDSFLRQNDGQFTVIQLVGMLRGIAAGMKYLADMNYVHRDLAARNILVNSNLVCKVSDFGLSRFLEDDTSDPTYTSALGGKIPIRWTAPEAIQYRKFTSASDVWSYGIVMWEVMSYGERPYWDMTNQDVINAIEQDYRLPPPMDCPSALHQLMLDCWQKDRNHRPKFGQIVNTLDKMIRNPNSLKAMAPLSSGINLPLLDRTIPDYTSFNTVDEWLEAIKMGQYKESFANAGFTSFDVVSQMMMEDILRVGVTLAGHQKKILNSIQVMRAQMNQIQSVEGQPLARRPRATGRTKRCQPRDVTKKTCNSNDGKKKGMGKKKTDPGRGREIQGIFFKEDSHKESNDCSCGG
DCAMKL2, sequence (Q8N568 whole entry): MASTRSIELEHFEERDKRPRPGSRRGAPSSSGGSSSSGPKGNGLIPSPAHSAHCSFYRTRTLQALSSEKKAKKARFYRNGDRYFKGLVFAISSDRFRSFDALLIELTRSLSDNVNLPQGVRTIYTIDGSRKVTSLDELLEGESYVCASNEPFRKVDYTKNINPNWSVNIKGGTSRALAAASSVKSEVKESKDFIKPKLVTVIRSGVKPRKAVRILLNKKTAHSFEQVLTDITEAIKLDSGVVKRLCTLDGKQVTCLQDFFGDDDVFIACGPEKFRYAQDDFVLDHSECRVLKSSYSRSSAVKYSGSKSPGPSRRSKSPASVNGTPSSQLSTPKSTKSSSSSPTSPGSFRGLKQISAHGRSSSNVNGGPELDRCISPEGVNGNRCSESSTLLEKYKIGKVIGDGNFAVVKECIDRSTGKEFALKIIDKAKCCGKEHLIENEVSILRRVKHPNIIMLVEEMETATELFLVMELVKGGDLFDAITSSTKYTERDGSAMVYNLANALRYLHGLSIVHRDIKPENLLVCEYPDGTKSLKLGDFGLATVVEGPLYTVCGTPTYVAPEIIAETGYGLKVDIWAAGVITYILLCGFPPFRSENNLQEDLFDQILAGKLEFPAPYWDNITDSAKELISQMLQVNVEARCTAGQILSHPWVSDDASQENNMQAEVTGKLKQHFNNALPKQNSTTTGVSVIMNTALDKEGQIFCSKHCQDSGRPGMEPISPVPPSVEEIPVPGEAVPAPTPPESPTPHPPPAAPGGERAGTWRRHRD
TRKA, sequence (P04629 33-796): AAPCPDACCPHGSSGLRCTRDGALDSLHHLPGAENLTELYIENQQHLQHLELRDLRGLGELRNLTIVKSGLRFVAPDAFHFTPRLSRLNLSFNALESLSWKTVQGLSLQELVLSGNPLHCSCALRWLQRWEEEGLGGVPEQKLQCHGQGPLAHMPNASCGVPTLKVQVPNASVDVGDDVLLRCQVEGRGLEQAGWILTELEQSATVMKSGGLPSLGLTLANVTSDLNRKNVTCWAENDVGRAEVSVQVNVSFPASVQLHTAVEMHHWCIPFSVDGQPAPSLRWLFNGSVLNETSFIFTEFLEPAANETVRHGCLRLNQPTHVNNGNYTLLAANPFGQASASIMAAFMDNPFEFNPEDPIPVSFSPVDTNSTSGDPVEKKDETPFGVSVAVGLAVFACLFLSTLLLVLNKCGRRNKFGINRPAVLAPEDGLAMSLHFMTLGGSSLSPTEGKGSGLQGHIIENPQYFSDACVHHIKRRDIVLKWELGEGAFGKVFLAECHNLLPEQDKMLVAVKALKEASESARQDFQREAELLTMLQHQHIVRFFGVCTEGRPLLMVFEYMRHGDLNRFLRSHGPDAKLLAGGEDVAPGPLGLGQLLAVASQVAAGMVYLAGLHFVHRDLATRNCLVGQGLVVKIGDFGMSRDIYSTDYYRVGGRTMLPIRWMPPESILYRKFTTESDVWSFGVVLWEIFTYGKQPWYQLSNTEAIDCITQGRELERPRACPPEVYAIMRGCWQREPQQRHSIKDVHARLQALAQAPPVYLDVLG

COC1CN(C(=O)c2ccc3c(N)ncc(-c4ccc(-c5cnn(C)c5)cc4)c3n2)C1 [Compound 51] showed a percentage effect (EPHB1) of 13%, a percentage effect (PIM-3) of -9% and a percentage effect (NEK2) of -5%. It also gave a percentage effect (SIK) of -3%, a percentage effect (PASK) of -8% and a percentage effect (ROCK-II) of -2%. The percentage effect (CK1DELTA) was 1%, the percentage effect (HCK) was -6% and the percentage effect (PDGFRBETA) was 2%. The percentage effect (PKCEPSILON) was 14%, the percentage effect (LYN) was -1% and the percentage effect (PI3 KINASE (P85A)) was -12%. It also gave a percentage effect (TAO3) of -16%, a percentage effect (TAO1) of -1% and a percentage effect (MST2) of -5%. For the same molecule, the percentage effect (ZAP-70) was -3%, the percentage effect (PRK2) was -3% and the percentage effect (CDK5/P35) was 8%. For the same molecule, the percentage effect (PKCIOTA) was -16%, the percentage effect (DAPK1) was 0% and the percentage effect (PKBALPHA) was -11%. For the same molecule, the percentage effect (ABL) was 20%, the percentage effect (GRK5) was 6% and the percentage effect (ERBB4) was -8%. For the same molecule, the percentage effect (PKCBETAI) was -1%, the percentage effect (MAPK2) was 6% and the percentage effect (TXK) was -13%. For the same molecule, the percentage effect (MTOR) was -12%, the percentage effect (SAPK2A) was -4% and the percentage effect (CSK) was 21%. The percentage effect (DCAMKL2) was 0%, the percentage effect (TRKA) was -23% and the percentage effect (FYN) was 1%. It also gave a percentage effect (EPHA4) of 2%, a percentage effect ([…] [1]) of 5% and a percentage effect (EPHB2) of 7%. For the same molecule, the percentage effect (PTK5) was -8%, the percentage effect (LOK) was 3% and the percentage effect ([…] [2]) was -10%. It also gave a percentage effect (FGR) of 19%, an IC50 (phospho-STAT1^SER727) of 17.9 ± 10.6 nM and a percentage effect (MSK1) of -2%. It also gave a percentage effect (PI3K DELTA) of -10% and a percentage effect (GRK6) of 4%.
For COC1CN(C(=O)c2ccc3c(N)ncc(-c4ccc(-c5cnn(C)c5)cc4)c3c2)C1 [Compound 59], the percentage effect (EPHB1) was -44%, the percentage effect (PIM-3) was 9% and the percentage effect (NEK2) was -9%. For the same molecule, the percentage effect (SIK) was -5%, the percentage effect (PASK) was -4% and the percentage effect (ROCK-II) was -12%. For the same molecule, the percentage effect (CK1DELTA) was -10%, the percentage effect (HCK) was -3% and the percentage effect (PDGFRBETA) was 17%. For the same molecule, the percentage effect (PKCEPSILON) was 8%, the percentage effect (LYN) was 0% and the percentage effect (PI3 KINASE (P85A)) was 0%. It also gave a percentage effect (TAO3) of -6%, a percentage effect (TAO1) of 9% and a percentage effect (MST2) of -14%. The percentage effect (ZAP-70) was -6%, the percentage effect (PRK2) was -11% and the percentage effect (CDK5/P35) was -2%. For the same molecule, the percentage effect (PKCIOTA) was 2%, the percentage effect (DAPK1) was -5% and the percentage effect (PKBALPHA) was 4%. It also gave a percentage effect (ABL) of -10%, a percentage effect (GRK5) of 22% and a percentage effect (ERBB4) of -34%. The percentage effect (PKCBETAI) was 15%, the percentage effect (MAPK2) was -4% and the percentage effect (TXK) was -7%. It also gave a percentage effect (MTOR) of -5%, a percentage effect (SAPK2A) of -9% and a percentage effect (CSK) of 7%. It also gave a percentage effect (DCAMKL2) of 0%, a percentage effect (TRKA) of -25% and a percentage effect (FYN) of 8%. The percentage effect (EPHA4) was 1%, the percentage effect ([…] [1]) was 2% and the percentage effect (EPHB2) was 24%. The percentage effect (PTK5) was -4%, the percentage effect (LOK) was 1% and the percentage effect ([…] [2]) was 8%. The percentage effect (FGR) was 7%, the IC50 (phospho-STAT1^SER727) was 114 ± 20.6 nM and the percentage effect (MSK1) was 0%. The percentage effect (PI3K DELTA) was -10% and the percentage effect (GRK6) was 8%.
